Structures can show the parent of a compound that is named as a salt.
Columns and labels:
[1] = system: mongrel adult dogs; assay: Effects on the work done by the left ventricle (thoractomized anesthetized dogs, i.v.); format: in vivo, dog
Description: (§1) All experiments were conducted on male and female thoractomized mongrel adult dogs weighing about 10 Kg under anesthesia with pentobarbital sodium.
(§2) Arterial blood pressure was measured by pressure transducer (Nippon Koden MPU-0.5) connected with the cannula inserted from exposed carotid artery into aorta. Aortic blood flow was determined by means of electromagnetic flow meter (Nippon Koden MF-5) mounted at an origin of aorta. Coronary sinus out flow and coronary sinus oxygen tension were assessed by means of electromagnetic flow meter (Nippon Koden MF-5) and Po2 Macro electrode (Beckmann Moder 160-C), respectively, using Morawitz cannulization technique. Heart rate was measured by cardiotachometer (Nippon Koden RT-2) synchronized with systolic blood pressure of aorta.
The work done by the left ventricle is calculated according to the following equation: […]

[2] = system: mongrel adult dogs; assay: Effects on arterial mean blood pressure (thoractomized anesthetized dogs, i.v.); format: in vivo, dog
Description: as §1, §2

[3] = prior art; cited from earlier work
[4] = system: mongrel adult dogs; assay: Effects on heart rate (thoractomized anesthetized dogs, i.v.); format: in vivo, dog
Description: as §1, §2

COc1ccc(CN2CCNCC2)c(OC)c1OC [Vastarel F, 2,3,4 -trimethoxybenzylpiperazine dihydrochloride]
Changes(%) of basal values, work of left ventricle ([1]; i.v. 0.2 mg/Kg, 1 min): -1.0% | Changes(%) of basal values, work of left ventricle ([1]; i.v. 0.2 mg/Kg, 5 min): -2.5% | Changes(%) of basal values, work of left ventricle ([1]; i.v. 0.2 mg/Kg, 10 min): -1.5% | Changes(%) of basal values, work of left ventricle ([1]; i.v. 0.2 mg/Kg, 15 min): -1.0% | Changes(%) of basal values, work of left ventricle ([1]; i.v. 0.2 mg/Kg, 20 min): 0% | Changes(%) of basal values, work of left ventricle ([1]; i.v. 0.2 mg/Kg, 25 min): 0% | Changes(%) of basal values, work of left ventricle ([1]; i.v. 0.2 mg/Kg, 30 min): 0% | Changes(%) of basal values, work of left ventricle ([1]; i.v. 0.2 mg/Kg, imm.): -2.5% | Changes(%) of basal values, work of left ventricle ([1]; i.v. 0.6 mg/Kg, 1 min): -2.0% | Changes(%) of basal values, work of left ventricle ([1]; i.v. 0.6 mg/Kg, 5 min): -1.5% | Changes(%) of basal values, work of left ventricle ([1]; i.v. 0.6 mg/Kg, 10 min): -2.0% | Changes(%) of basal values, work of left ventricle ([1]; i.v. 0.6 mg/Kg, 15 min): -2.0% | Changes(%) of basal values, work of left ventricle ([1]; i.v. 0.6 mg/Kg, 20 min): -1.0% | Changes(%) of basal values, work of left ventricle ([1]; i.v. 0.6 mg/Kg, 25 min): -1.5% | Changes(%) of basal values, work of left ventricle ([1]; i.v. 0.6 mg/Kg, 30 min): 0% | Changes(%) of basal values, work of left ventricle ([1]; i.v. 0.6 mg/Kg, imm.): -4.5% | Changes(%) of basal values, work of left ventricle ([1]; i.v. 2.0 mg/Kg, 1 min): -35.0% | Changes(%) of basal values, work of left ventricle ([1]; i.v. 2.0 mg/Kg, 5 min): +9.0% | Changes(%) of basal values, work of left ventricle ([1]; i.v. 2.0 mg/Kg, 10 min): +21.5% | Changes(%) of basal values, work of left ventricle ([1]; i.v. 2.0 mg/Kg, 15 min): +10.0% | Changes(%) of basal values, work of left ventricle ([1]; i.v. 2.0 mg/Kg, 20 min): +4.0% | Changes(%) of basal values, work of left ventricle ([1]; i.v. 2.0 mg/Kg, 25 min): +3.5% | Changes(%) of basal values, work of left ventricle ([1]; i.v. 2.0 mg/Kg, 30 min): +3.0% | Changes(%) of basal values, work of left ventricle ([1]; i.v. 2.0 mg/Kg, imm.): -90.0% | Changes(%) of basal values, arterial mean blood pressure ([2]; i.v. 0.2 mg/Kg, 1 min): -1.0% | Changes(%) of basal values, arterial mean blood pressure ([2]; i.v. 0.2 mg/Kg, 5 min): -2.0% | Changes(%) of basal values, arterial mean blood pressure ([2]; i.v. 0.2 mg/Kg, 10 min): -1.5% | Changes(%) of basal values, arterial mean blood pressure ([2]; i.v. 0.2 mg/Kg, 15 min): -1.0% | Changes(%) of basal values, arterial mean blood pressure ([2]; i.v. 0.2 mg/Kg, 20 min): 0% | Changes(%) of basal values, arterial mean blood pressure ([2]; i.v. 0.2 mg/Kg, 25 min): 0% | Changes(%) of basal values, arterial mean blood pressure ([2]; i.v. 0.2 mg/Kg, 30 min): 0% | Changes(%) of basal values, arterial mean blood pressure ([2]; i.v. 0.2 mg/Kg, imm.): -3.0% | Changes(%) of basal values, arterial mean blood pressure ([2]; i.v. 0.6 mg/Kg, 1 min): -2.0% | Changes(%) of basal values, arterial mean blood pressure ([2]; i.v. 0.6 mg/Kg, 5 min): -1.5% | Changes(%) of basal values, arterial mean blood pressure ([2]; i.v. 0.6 mg/Kg, 10 min): -1.0% | Changes(%) of basal values, arterial mean blood pressure ([2]; i.v. 0.6 mg/Kg, 15 min): -1.0% | Changes(%) of basal values, arterial mean blood pressure ([2]; i.v. 0.6 mg/Kg, 20 min): 0% | Changes(%) of basal values, arterial mean blood pressure ([2]; i.v. 0.6 mg/Kg, 25 min): 0% | Changes(%) of basal values, arterial mean blood pressure ([2]; i.v. 0.6 mg/Kg, 30 min): 0% | Changes(%) of basal values, arterial mean blood pressure ([2]; i.v. 0.6 mg/Kg, imm.): -6.0% | Changes(%) of basal values, arterial mean blood pressure ([2]; i.v. 2.0 mg/Kg, 1 min): -35.0% | Changes(%) of basal values, arterial mean blood pressure ([2]; i.v. 2.0 mg/Kg, 5 min): -2.0% | Changes(%) of basal values, arterial mean blood pressure ([2]; i.v. 2.0 mg/Kg, 10 min): -1.0% | Changes(%) of basal values, arterial mean blood pressure ([2]; i.v. 2.0 mg/Kg, 15 min): 0% | Changes(%) of basal values, arterial mean blood pressure ([2]; i.v. 2.0 mg/Kg, 20 min): -1.0% | Changes(%) of basal values, arterial mean blood pressure ([2]; i.v. 2.0 mg/Kg, 25 min): -2.0% | Changes(%) of basal values, arterial mean blood pressure ([2]; i.v. 2.0 mg/Kg, 30 min): -2.0% | Changes(%) of basal values, arterial mean blood pressure ([2]; i.v. 2.0 mg/Kg, imm.): -55.0% | Effect on the heart, disadvantage (in words) [3]: depressant effect on the heart | Changes(%) of basal values, heart rate ([4]; i.v. 0.2 mg/Kg, 1 min): 0% | Changes(%) of basal values, heart rate ([4]; i.v. 0.2 mg/Kg, 5 min): -1.5% | Changes(%) of basal values, heart rate ([4]; i.v. 0.2 mg/Kg, 10 min): -1.0% | Changes(%) of basal values, heart rate ([4]; i.v. 0.2 mg/Kg, 15 min): 0% | Changes(%) of basal values, heart rate ([4]; i.v. 0.2 mg/Kg, 20 min): 0% | Changes(%) of basal values, heart rate ([4]; i.v. 0.2 mg/Kg, 25 min): 0% | Changes(%) of basal values, heart rate ([4]; i.v. 0.2 mg/Kg, 30 min): 0% | Changes(%) of basal values, heart rate ([4]; i.v. 0.2 mg/Kg, imm.): +1.5% | Changes(%) of basal values, heart rate ([4]; i.v. 0.6 mg/Kg, 1 min): +0.5% | Changes(%) of basal values, heart rate ([4]; i.v. 0.6 mg/Kg, 5 min): +0.5% | Changes(%) of basal values, heart rate ([4]; i.v. 0.6 mg/Kg, 10 min): 0% | Changes(%) of basal values, heart rate ([4]; i.v. 0.6 mg/Kg, 15 min): -1.0% | Changes(%) of basal values, heart rate ([4]; i.v. 0.6 mg/Kg, 20 min): -1.0% | Changes(%) of basal values, heart rate ([4]; i.v. 0.6 mg/Kg, 25 min): -1.0% | Changes(%) of basal values, heart rate ([4]; i.v. 0.6 mg/Kg, 30 min): 0% | Changes(%) of basal values, heart rate ([4]; i.v. 0.6 mg/Kg, imm.): +1.5% | Changes(%) of basal values, heart rate ([4]; i.v. 2.0 mg/Kg, 1 min): -2.0% | Changes(%) of basal values, heart rate ([4]; i.v. 2.0 mg/Kg, 5 min): -2.0% | Changes(%) of basal values, heart rate ([4]; i.v. 2.0 mg/Kg, 10 min): -1.5% | Changes(%) of basal values, heart rate ([4]; i.v. 2.0 mg/Kg, 15 min): -1.0% | Changes(%) of basal values, heart rate ([4]; i.v. 2.0 mg/Kg, 20 min): -1.5% | Changes(%) of basal values, heart rate ([4]; i.v. 2.0 mg/Kg, 25 min): -1.0% | Changes(%) of basal values, heart rate ([4]; i.v. 2.0 mg/Kg, 30 min): -1.5% | Changes(%) of basal values, heart rate ([4]; i.v. 2.0 mg/Kg, imm.): +5.5%
